According to a melting point compilation (Tetko et al.; mined from patent text by program, amines drawn as free bases though some values may be those of a salt):

| melting point [°C] | Structure (SMILES) |
| --- | --- |
| 164 to 165 | COc1ccc(-c2nc3n(c2-c2cccnc2)CCC3)cc1 |
| 149 to 151 | COc1ccc(Cn2c3c(c4cc(F)cc(F)c42)CCCC3CC(=O)O)cc1 (configuration not stated) |
| 131 to 134 | CCc1nc2c(cnn2CC)c(NC2CCOCC2)c1CNC(=O)c1cccc(C(=O)NCc2ccc(Cl)c(-c3cccc(C=O)c3)c2)c1 |
| 150 | CN1CCCCC1CCc1ccccc1NC(=O)c1ccc(C(F)(F)F)cc1 (configuration not stated) |
| 115 to 117 | CCN(CCCCC1CCN(C(c2ccccc2)c2ccccc2)CC1)C(=O)C=Cc1cccnc1 |
| 148 to 150 | COCC(=O)N1CCN(CCc2ccc(-c3cccc(N)n3)cc2)CC1 |
| 209 to 211 | CCOC(=S)Nc1cccc(-c2ccnc3c(C(=O)c4cccs4)cnn23)c1 |
| 55 | COC(=O)CCCc1ccc(CNC(=O)C2Cc3ccccc3N2S(=O)(=O)c2ccc(-c3cccc(C(F)(F)F)c3)cc2)cc1 (configuration not stated) |
| 232 | COC(=O)c1cccc(-c2c(C)c(C(=O)c3ccc4nc(C)[nH]c(=O)c4c3)n3ccccc23)c1 |
| 140 | CCCCc1ncc(CSC(CC(=O)O)C(=O)O)n1Cc1ccc(C(=O)O)cc1 (configuration not stated) |
| 71 to 72 | CC(C)Nc1cccnc1N1CCN(C(=O)c2ccc(C(=O)N(CCO)c3ccccc3)cc2)CC1 |
| 155 | COc1cccc(OC)c1C(=O)P(=O)(C(=O)c1c(OC)cccc1OC)c1ccccc1 |
| 154 | O=C(O)Cc1ccc2c(c1)CCc1ccccc1C2=O |
| 253 to 254 | Cc1cc2c(cc1Sc1ccc(C(=O)O)cc1)C(C)(C)CCC2(C)C |
| 133 to 135 | O=C(c1cccs1)c1cnn2c(-c3cccc(NCc4cccc(Cl)c4)c3)ccnc12 |
| 108 to 111 | CC1CCCN1c1cc(F)cc(C(=O)Nc2ccc(OCCN3CCOCC3)c3ccccc23)c1 (configuration not stated) |
| 71 to 75 | CCN1C[C@@H](O)[C@H](N(CCc2ccccc2)C(=O)c2ccccc2)C1 (relative stereo) |
| 104 to 106 | CC(CCC1(C(N)=O)c2ccccc2-c2ccccc21)N(C)C (configuration not stated) |

| melting point [°C] | Structure (SMILES) |
| --- | --- |
| 109 to 110 | CCOC(=O)/C=C/c1ccc(OCc2nc(-c3ccccc3)oc2C)nc1 |
| 82 to 84 | CC(C)(C)OC(=O)CN1C(=O)[C@@H](NC(=O)OCc2ccccc2)[C@H]1CCc1ccco1 |
| 58 to 62 | COc1cc2cc(C(=O)Nc3cc(NC(=O)OCc4ccccc4)c4ccccc4c3CCCl)[nH]c2c(OC)c1OC |
| 168 to 169 | Cc1c(F)cccc1NC(=O)CN1CC2CCC(C1)N2S(=O)(=O)c1ccccc1 |
| 98 | CCCCNC(=O)C(C)Oc1ccc(COc2ccc(Cl)cc2)cc1 (configuration not stated) |
| > 300 | O=C(Nc1ccccc1)OCc1cn(-c2cc3cc(C(=O)O)c(=O)[nH]c3cc2[N+](=O)[O-])cn1 |
| 189 to 191 | CCCNC(=O)C(C)=Cc1ccc2c(c1)c(Cc1ccc(C(=O)NS(=O)(=O)c3ccccc3C)cc1OC)cn2C |
| 247 to 249 | CCc1cccc(CC)c1NC(=O)NC1CCC(c2ccccc2)CC1 (configuration not stated) |
| 131 to 132 | c1ccc(COc2cc(OCC3CCCCC3)ccc2CNc2ccncc2)cc1 |
| 80 to 83 | COC(=O)CCCCCCCn1cc(-c2ccccc2)c(-c2ccccc2)nc1=O |
| 193 to 196 | O=C(O)CN1C(=O)C2(COc3cc4c(cc32)OCCO4)c2ccccc21 (configuration not stated) |
| 84 to 90 | COC(=O)c1ccc(OCCNC(=O)C2Cc3ccccc3N2S(=O)(=O)c2ccc(-c3ccc(F)cc3)cc2)c(Cl)c1 (configuration not stated) |
| 76 to 99 | COc1cc2c(cc1Nc1ncc(Cl)c(Nc3ccccc3OC)n1)CCN(C(=O)CN(C)C)CC2 |
| 79.6 to 80.2 | COc1ccccc1C(=O)Nc1ccc(F)cc1 |
| 152 to 154 | O[C@@H]1Cc2ccccc2C[C@H]1N1CCN(c2ccccc2)CC1 (relative stereo) |
| 165 to 166 | COc1cc(C(=O)N2Cc3ccc(C(=O)NCc4cccc(C)c4)n3Cc3ccccc32)ccc1-c1ccccc1C |
| 176 to 179 | COc1ccc2nc(COc3cccc(OCc4cccc(C)c4C(=O)O)c3)ccc2c1 |

Second part, the molecule before the results:

| Structure (SMILES) | melting point [°C] |
| --- | --- |
| Cc1cc(Cl)cc(C(=O)NC(C)CSC[Si](C)(C)C)c1NC(=O)c1cc(Br)nn1-c1ncccc1Cl (configuration not stated) | 151 to 153 |
| CC(O)c1cc(C(C)O)cc(S(N)(=O)=O)c1 (configuration not stated) | 175 to 177 |
| COC(C)(C)CN1CCC(CNC(=O)c2cc(Cl)c(N)n3cc(C)nc23)CC1 | 211 |
| Nc1nc2c(ncn2/C=C2/CC2(CO)CO)c(=O)[nH]1 | > 300 |
| O=C1CCCCCC1c1ncc[nH]1 (configuration not stated) | 68 to 69 |
| CCCCCCCCCCc1cc2c(s1)-n1c(C)nnc1CN=C2c1ccccc1C | 61 to 63 |
| COc1cc(C(=O)O)c(Br)cc1C(=O)O | 275 |
| COc1cc2c(cc1-c1ncco1)-c1c(-c3cncs3)c3c(n1CC2)C(=O)N(C(C)(C)C)CCCC3 | 205 to 207 |
| N#Cc1ccc2c(c1)C(=O)C1(CC1)O2 | 148 to 149 |
| COc1cc(C=O)ccc1OCc1sc(-c2ccccc2)nc1C | 118 to 119 |
| CCc1nc2cc(Cn3ccnc3)ccc2n1C | 127 |
| CCc1cc(C)cc(CC)c1C1C(=O)C2=CC(CCC(C)=NOC)CC2C1=O (configuration not stated) | 79 to 80 |
| CCCCc1cc(Br)c(N=Nc2ccc(N(CCO)CCO)cc2NC(C)=O)c(Br)c1 | 157 to 159 |
| C[C@@H](n1cnc2cc(-c3ccc(Cl)cc3)sc2c1=O)[C@](O)(Cn1cncn1)c1ccc(F)cc1F | 158 to 160 |
| c1ccc(P(Cc2ccccc2-c2ccccc2CP(c2ccccc2)c2ccccc2)c2ccccc2)cc1 | 84 to 87 |
| CC1(C)CCC(OC2=C(c3ccc(S(C)(=O)=O)cc3)C(C)(C)OC2=O)C1 (configuration not stated) | 99 to 100 |
| O=C(O)CCc1cc(-c2ccc(Cl)cc2)n(-c2nc3c(Cl)cccc3s2)n1 | 232 to 234 |
| Cc1c(-c2cccnc2)n(CCCCc2nnn[nH]2)c2ccccc12 | 177 to 179 |
| Nc1nc(N)nc(-c2ccc(-c3ccc(F)cc3)cc2)n1 | > 260 |
| CC[C@@H](C=O)NC(=O)OC(C)(C)C | 39 to 43 |
| COCc1nnc(SCC(=O)C23CC4CC(CC(C4)C2)C3)n1C | 109 to 111 |

| Structure (SMILES) | melting point [°C] |
| --- | --- |
| CCOC(=O)Nc1ccc(OC23CC4CC(CC(C4)C2)C3)cc1 | 116 to 118 |
| COC(=O)C(O)C(NC(=O)OCc1ccccc1)C(=O)OC (configuration not stated) | 129 |
| Cc1nn(C2CCOC2)c(N)c1C#N (configuration not stated) | 134 to 135 |
| CSC1=Nc2ccccc2N(C)c2cscc21 | 113 to 115 |
| CC1(C)CCC2=C(O1)c1ccccc1C(=O)C2=O | 154 to 156 |
| CCCCC(C(=O)OCC)(C(=O)OCC)c1nc(C)nc2c1c(SC)nn2-c1c(Cl)cc(Cl)cc1Cl | 148 to 150 |
| CCC(=O)OC(CC)c1nc2c(C(F)(F)F)cccc2c(O)c1C(=O)Nc1nccs1 (configuration not stated) | 187 |
| O=C(O)c1cc2ccccc2n1Cc1cccc(Cl)c1 | 188 to 189 |
| CON(C(=O)c1ccoc1C)C1CCCCC1 | 46 |
| COc1ccc(C2(c3ccc(OC)cc3)CC2(C)Br)cc1 (configuration not stated) | 97 to 104 |
| CC(=O)Nc1cccc(-c2ccnc3c(C(=O)c4cccs4)cnn23)c1 | 245 to 247 |
| C#Cc1cnn2c(C(F)(F)F)cc(-c3cccc(C(F)(F)F)c3)nc12 | 154 |
| CCc1nc(/C=C/c2cccc(O)c2)sc1C | 161 to 162 |
| CC1(C)CCC2(C(=O)O)CCC3(C)C(=CCC4C5(C)Cc6c(n[nH]c6N)C(C)(C)C5CCC43C)C2C1 (configuration not stated) | 263 to 266 |
| CC(=O)Nc1ccc2cc(S(N)(=O)=O)sc2c1 | 214 to 217 |
| C=C1C=CC=C1Cc1ccc(O)cc1 | 143 to 144 |
| CCOCc1nc2c(N)nc3cc(CCCN4CCOCC4)ccc3c2n1CC(C)(C)O | 132 to 133 |
| COC(=O)c1sc(C(=O)OC)c([N+](=O)[O-])c1OC | 80 to 82 |
| CCCCC(CC)Cn1c2ccc(Br)cc2c2cc(Br)ccc21 (configuration not stated) | 62.4 to 63.6 |
| CC(C)Oc1cc(-n2c(=O)c3c(n(C)c2=O)CCC3)c(F)cc1Cl | 105 to 107 |
| Cc1ccc(Oc2ccc(Cl)cn2)c(Oc2ccc(Cl)cn2)c1 | 87 to 90 |

| Structure (SMILES) | melting point [°C] |
| --- | --- |
| Nc1ccccc1NC(=O)Nc1ccc(-c2ccc(C(=O)N3CCN4CCC3CC4)o2)cc1 | 174 |
| COc1cc(C)c(C(=O)c2c(Cl)cccc2Cl)cc1OC | 101 to 103 |
| COc1cc(OC)c2c(C)cc(=O)[nH]c2c1 | 239 to 240 |
| CC(C)(C=NO)n1ccnc1 | 117 to 120 |
| CC(C)(C)COC(=O)Oc1cc(Cl)nnc1-c1ccc(Br)cc1 | 114 to 116 |
| CCOC(=O)c1cc(O)cc2nc(-c3ccc(O)cc3)oc12 | 305 to 307 |
| COC(=O)c1ccc(OCC=C(C)CCC=C(C)C)cc1 | 30 to 33 |
| N#Cc1nn(-c2c(Cl)cc(C(F)(F)F)cc2Cl)c(N)c1S(=O)(=O)c1ccc(Cl)cc1 | 90 to 95 |
| CC12CCC3C(CCC4=CC(=O)CCC43CO)C1CCC2O (configuration not stated) | 205 to 207 |
| CC(C)CNCC(O)c1cc(C(F)(F)F)nc2c(C(F)(F)F)cccc12 (configuration not stated) | 132 |
| CC(C)(CCC(=O)O)C(=O)Oc1cc(Cl)ccc1Oc1ccc(Cl)cc1Cl | 125 to 128 |
| Cc1ccc(Cl)c(-c2cc(=O)c3c(O)cc(O)c([C@@H]4CCN(C)[C@H]4CO)c3o2)c1 | 206 to 208 |
| CCOCc1nc2c(c(C)c(C)n3nnnc23)n1CCNC(=O)N1CCOCC1 | 205 to 207 |
| Cc1cnc(CCl)n2c1c(CCCl)c1ccccc12 | 160 to 161 |
| Cc1sc2c(Cl)c(Cl)c(OCC(=O)O)cc2c1C | 218 to 219 |
| Nc1nc2ccccc2c2c1ncn2CCOCc1cc2ccccc2o1 | 201 to 203 |
| COc1ccc(OCCCCCc2cc(C)on2)c(Cl)c1 | 45 to 47 |
| O=c1c2ccc([N+](=O)[O-])cc2nc(CSc2ncnc3[nH]cnc23)n1-c1ccccc1Cl | 218 |
| CCCN1CCCC2Cc3nc(NC(C)=O)sc3CC21 (configuration not stated) | > 200 |
| CCOC(=O)c1c[nH]nc1NCc1ccc(OC)c(OC2CCCC2)c1 | 102 to 104 |
